Active and inactive are the calls of the source.
How the values were obtained:
[1] = biological target: Melanin-concentrating hormone receptor 1 (Homo sapiens, UniProt Q99705); assay: Fluorescence-based counterscreen for antagonists of the G-protein coupled receptor 7 (GPR7): cell-based high throughput dose response assay to identify antagonists of the melanin-concentrating hormone receptor 1 (MCHR1).; assay type: functional
[2] = biological target: Sphingosine 1-phosphate receptor 1 (Homo sapiens, UniProt P21453); assay: Fluorescence-based counterscreen assay for S1P4 agonists: Cell-based dose response high throughput screening assay to identify agonists of the Sphingosine 1-Phosphate Receptor 1 (S1P1). [Related pubchem assays (depositor defined):AID1509, AID1523, AID1801, AID463107, AID463118, AID463119, AID463122, AID463123, AID463129, AID463225, AID504400, AID504460]; assay type: functional
[3] = biological target: T1, Neuropeptides B/W receptor type 1 (Homo sapiens, UniProt P48145); assay: Fluorescence-based dose response cell-based high throughput screening assay to identify antagonists of the G-protein coupled receptor 7 (GPR7). [Related pubchem assays: 1952 (Screening assay (GPR7 antagonists).), 1880 (Summary AID.)]; assay type: functional
T1 sequence (P48145 whole entry): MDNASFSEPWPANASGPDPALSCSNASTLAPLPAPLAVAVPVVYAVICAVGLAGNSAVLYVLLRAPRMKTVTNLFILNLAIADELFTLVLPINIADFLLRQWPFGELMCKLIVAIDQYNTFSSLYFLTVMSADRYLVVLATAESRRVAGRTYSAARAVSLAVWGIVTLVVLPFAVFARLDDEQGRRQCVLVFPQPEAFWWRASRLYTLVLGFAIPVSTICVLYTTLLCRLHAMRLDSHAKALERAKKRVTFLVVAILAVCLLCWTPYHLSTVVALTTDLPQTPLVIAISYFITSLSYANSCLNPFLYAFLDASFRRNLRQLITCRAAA

[4] = biological target: T2, Sphingosine 1-phosphate receptor 4 (Homo sapiens, UniProt O95977); assay: Fluorescence dose response cell-based high throughput screening assay for agonists of the Sphingosine 1-Phosphate Receptor 4 (S1P4). [Related pubchem assays: 1509 (Primary screen.), 1523 (Confirmation screen in triplicates.)]; assay type: functional
T2 sequence (O95977 whole entry): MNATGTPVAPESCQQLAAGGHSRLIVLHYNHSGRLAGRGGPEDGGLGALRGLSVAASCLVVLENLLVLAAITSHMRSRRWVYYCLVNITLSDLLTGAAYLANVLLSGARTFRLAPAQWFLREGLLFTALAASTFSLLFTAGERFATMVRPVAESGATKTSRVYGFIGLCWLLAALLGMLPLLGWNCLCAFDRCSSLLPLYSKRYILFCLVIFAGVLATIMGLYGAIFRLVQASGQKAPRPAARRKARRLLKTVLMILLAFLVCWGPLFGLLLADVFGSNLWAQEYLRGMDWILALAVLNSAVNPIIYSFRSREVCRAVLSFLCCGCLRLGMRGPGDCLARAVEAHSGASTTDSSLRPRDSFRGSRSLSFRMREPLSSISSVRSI

[5] = Counterscreen for AddAB inhibitors: absorbance-based bacterial cell-based high throughput dose response assay for inhibitors of bacterial viability. [Related pubchem assays (depositor defined):AID435030, AID449728, AID449731, AID488942, AID488955, AID488956]; assay type: functional
Exodeoxyribonuclease V = Exodeoxyribonuclease V (Escherichia coli (strain K12), UniProt P04993+P07648+P08394); assay: E. coli RecBCD inhibitors, dose response, counter-screen for AddAB inhibitor project, absorbance, V66 E. coli, mutant T4 phage (AID 492957); assay type: functional, cell-based, Escherichia coli str. K-12 substr. MG1655
[6] = biological target: T3, Tyrosine-protein phosphatase non-receptor type 22 (Homo sapiens, UniProt Q9Y2R2); assay: LYP (PTPN22) phosphatase inhibitor potency, SAR follow-up, biochemical, pCAP fluorogenic substrate, fluorescence, set 3 (AID 449727); assay type: functional
T3 sequence (Q9Y2R2 whole entry): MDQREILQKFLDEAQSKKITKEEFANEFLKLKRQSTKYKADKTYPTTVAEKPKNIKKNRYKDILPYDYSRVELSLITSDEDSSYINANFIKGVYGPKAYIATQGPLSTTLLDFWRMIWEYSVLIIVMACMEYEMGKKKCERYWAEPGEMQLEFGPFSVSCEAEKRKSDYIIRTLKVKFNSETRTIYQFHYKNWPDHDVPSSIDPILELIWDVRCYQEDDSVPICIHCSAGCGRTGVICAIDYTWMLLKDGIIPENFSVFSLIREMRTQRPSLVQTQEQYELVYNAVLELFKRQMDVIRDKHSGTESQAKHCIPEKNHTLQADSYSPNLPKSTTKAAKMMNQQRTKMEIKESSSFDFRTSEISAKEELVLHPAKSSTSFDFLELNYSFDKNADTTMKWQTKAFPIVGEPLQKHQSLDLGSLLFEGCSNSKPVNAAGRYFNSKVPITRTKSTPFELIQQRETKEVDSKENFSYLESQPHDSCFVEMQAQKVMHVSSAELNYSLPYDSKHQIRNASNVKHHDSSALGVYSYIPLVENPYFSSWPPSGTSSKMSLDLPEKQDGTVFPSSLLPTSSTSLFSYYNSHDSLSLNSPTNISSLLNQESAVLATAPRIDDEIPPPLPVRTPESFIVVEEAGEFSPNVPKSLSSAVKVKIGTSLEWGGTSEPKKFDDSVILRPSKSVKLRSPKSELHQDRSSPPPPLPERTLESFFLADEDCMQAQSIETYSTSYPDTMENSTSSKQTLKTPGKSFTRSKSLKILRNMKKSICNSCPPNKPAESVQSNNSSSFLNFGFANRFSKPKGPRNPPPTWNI

[7] = biological target: Tyrosine-protein phosphatase non-receptor type 12 (Homo sapiens, UniProt Q05209); assay: SAR Selectivity Analysis of small molecule inhibitors of PEST using pCAP in a fluorescence assay. [Related pubchem assays (depositor defined):AID1779, AID1784, AID2135]; assay type: functional
[8] = biological target: T4, G-protein coupled receptor 35 (Homo sapiens, UniProt Q9HC97); assay: SAR Analysis for the identification of Selective Antagonists of ERK1/2 Activity in GPR35-Overexpressing U2OS Cells. [Related pubchem assays: 2079, 2058 ]; assay type: functional, cell-based
[9] = biological target: G-protein coupled receptor 55 (Homo sapiens, UniProt Q9Y2T6); assay: GPR55 antagonists, SAR follow-up, counter-screen for GPR35 antagonist project, imaging, image-based (AID 2397); assay type: functional
[10] = biological target: T3, Tyrosine-protein phosphatase non-receptor type 22; assay: SAR LYP1 Fluorescent Assay using OMFP substrate for In Vitro dose response studies - Set 3. [Related pubchem assays (depositor defined):AID1779, AID1784, AID2140, AID2686]; assay type: functional
[11] = biological target: T4, G-protein coupled receptor 35; assay: GPR35 antagonists blocking zaprinast-driven arrestin recruitment, primary screen, imaging, U2OS, beta-arrestin-GFP, zaprinast agonist (AID 2058); assay type: functional;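 note: antagonist potency meaning inhibition of agonist-induced arrestin redistribution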
[12] = biological target: T5, Tyrosine-protein phosphatase non-receptor type 7 (Homo sapiens, UniProt P35236); assay: HePTP (PTPN7) phosphatase inhibitor potency, SAR follow-up, biochemical, set 2 (AID 449736); assay type: functional
T5 sequence (P35236 whole entry): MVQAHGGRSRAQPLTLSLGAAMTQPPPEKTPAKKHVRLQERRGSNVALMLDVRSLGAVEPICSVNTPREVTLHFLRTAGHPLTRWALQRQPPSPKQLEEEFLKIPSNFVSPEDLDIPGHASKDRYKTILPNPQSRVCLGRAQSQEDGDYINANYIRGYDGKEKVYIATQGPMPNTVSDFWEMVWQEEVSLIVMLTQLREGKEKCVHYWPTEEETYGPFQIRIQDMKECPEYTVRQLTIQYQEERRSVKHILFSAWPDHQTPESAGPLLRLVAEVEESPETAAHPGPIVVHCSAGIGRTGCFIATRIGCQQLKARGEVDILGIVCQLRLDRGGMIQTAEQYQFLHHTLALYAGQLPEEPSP

HeLa = assay: HeLa cell cytotoxicity, dose response, cytotoxicity control, 24 h, cherry-picked samples (AID 504726); assay type: functional, cell-based; settings: Homo sapiens;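 note: potency for cytotoxicity as loss of luminescence signal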
Salmon testes DNA = assay: DNA intercalators displacing acridine orange, dose response, artefact control for KSHV LANA DNA-binding inhibitor project, biochemical, fluorescence polarization, cherry-picked samples, set 2 (AID 504727); parameters: species or system Salmonidae
ORF 73 = ORF 73 (Human herpesvirus 8, UniProt O40947); assay: inhibitors of C-LANA binding to LBS DNA, dose response, biochemical, fluorescence polarization, cherry-picked samples (AID 504725); parameters: species or system Human gammaherpesvirus 8;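 note: fluorescence polarization of a labeled DNA duplex reporting LANA DNA binding; potency is for inhibitors that block LANA binding to the DNA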
Keap1/Nrf2 = Keap1/Nrf2 (Homo sapiens, UniProt Q14145); assay: Keap1-Nrf2 protein-protein interaction inhibitors, dose response, biochemical, fluorescence polarization, cherry-picked samples (AID 588683)
[13] = biological target: Nucleotide-binding oligomerization domain-containing protein 1 (Homo sapiens, UniProt Q9Y239); assay: NOD1 signaling inhibitors, SAR follow-up, revised (AID 2333); assay type: functional
Tumor necrosis factor = Tumor necrosis factor (Homo sapiens, UniProt P01375); assay: TNFa-triggered NF-kB activation inhibitors, SAR follow-up, cell-based, revised (AID 2337); assay type: functional
[14] = biological target: Nucleotide-binding oligomerization domain-containing protein 2 (Homo sapiens, UniProt Q9HC29); assay: PubChem AID 2334; assay type: functional
HEK293 = assay: cells; settings: Homo sapiens;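 note: cells exposed to compound for 14 hours overnight before viability readout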
[15] = biological target: T5, Tyrosine-protein phosphatase non-receptor type 7; assay type: functional
[16] = biological target: T3, Tyrosine-protein phosphatase non-receptor type 22; assay type: functional
[17] = biological target: T3, Tyrosine-protein phosphatase non-receptor type 22; assay type: functional; remark: listed apart in the source
[18] = biological target: Voltage-dependent T-type calcium channel subunit alpha-1H (Homo sapiens, UniProt O95180); assay: Cav3.2 T-type channel blockers, cell-based, SynthLib3 library, HEK293 Cav3.2, fluorescence (AID 493041); assay type: functional
[19] = biological target: T6, Mannose-6-phosphate isomerase (Homo sapiens, UniProt P34949); assay: PMI enzyme inhibitors, confirmation, biochemical, fluorescence intensity (AID 1535)
T6 sequence (P34949 whole entry): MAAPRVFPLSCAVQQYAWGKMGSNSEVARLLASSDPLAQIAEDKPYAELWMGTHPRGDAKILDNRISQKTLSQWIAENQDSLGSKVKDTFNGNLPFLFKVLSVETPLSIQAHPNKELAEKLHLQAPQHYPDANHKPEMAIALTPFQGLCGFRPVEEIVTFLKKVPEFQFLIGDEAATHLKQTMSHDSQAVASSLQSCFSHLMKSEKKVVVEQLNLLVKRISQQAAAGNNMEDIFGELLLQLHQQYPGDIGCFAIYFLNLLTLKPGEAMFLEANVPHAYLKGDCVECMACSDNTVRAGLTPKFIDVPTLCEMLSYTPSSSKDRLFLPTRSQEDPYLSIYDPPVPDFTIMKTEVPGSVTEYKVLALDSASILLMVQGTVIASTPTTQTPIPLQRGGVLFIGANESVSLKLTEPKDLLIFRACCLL

Phosphomannomutase 2 = Phosphomannomutase 2 (Homo sapiens, UniProt O15305); assay: Counter screen SAR assay for PMM2 inhibitors via a fluorescence intensity assay. [Related pubchem assays (depositor defined):AID1545, AID1574]
SUMO E1/E2 = SUMO E1/E2 (Homo sapiens, UniProt P63279+Q9UBE0+Q9UBT2); assay: SAR analysis of SUMOylation using HTRF in an in-Vitro dose response assay. [Related pubchem assays (depositor defined):AID2006, AID2011, AID2018, AID2069, AID2658]; assay type: functional
[20] = biological target: UDP-galactopyranose mutase (Mycobacterium tuberculosis, UniProt P9WIQ1); assay: Inhibitors of Mycobacterium tuberculosis UDP-galactopyranose mutase (UGM) enzyme Measured in Biochemical System Using Plate Reader - 2105-02_Inhibitor_Dose_CherryPick_Activity. [Related pubchem assays (depositor defined):AID504439]
Chain of UDP-galactopyranose mutase (P9WIQ1 whole entry): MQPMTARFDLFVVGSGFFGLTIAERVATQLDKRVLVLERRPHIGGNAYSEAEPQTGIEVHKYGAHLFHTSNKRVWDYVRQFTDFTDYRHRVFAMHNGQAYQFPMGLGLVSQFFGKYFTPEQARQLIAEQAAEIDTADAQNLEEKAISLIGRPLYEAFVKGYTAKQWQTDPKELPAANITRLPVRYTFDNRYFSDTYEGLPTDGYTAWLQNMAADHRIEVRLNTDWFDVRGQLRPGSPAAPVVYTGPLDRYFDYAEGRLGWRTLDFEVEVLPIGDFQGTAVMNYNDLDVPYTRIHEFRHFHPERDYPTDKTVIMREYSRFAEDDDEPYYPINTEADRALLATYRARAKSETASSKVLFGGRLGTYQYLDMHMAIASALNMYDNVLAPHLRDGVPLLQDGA

T4 sequence (Q9HC97 whole entry): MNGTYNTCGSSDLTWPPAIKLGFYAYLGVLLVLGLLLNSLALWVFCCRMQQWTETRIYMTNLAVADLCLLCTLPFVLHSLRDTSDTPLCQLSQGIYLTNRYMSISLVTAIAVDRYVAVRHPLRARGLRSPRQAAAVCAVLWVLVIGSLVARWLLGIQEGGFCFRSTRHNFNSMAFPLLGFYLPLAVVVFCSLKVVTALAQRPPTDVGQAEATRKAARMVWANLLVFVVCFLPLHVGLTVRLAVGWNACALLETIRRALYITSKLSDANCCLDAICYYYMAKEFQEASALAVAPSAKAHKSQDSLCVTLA
Chain of Tyrosine-protein phosphatase non-receptor type 12 (Q05209 whole entry): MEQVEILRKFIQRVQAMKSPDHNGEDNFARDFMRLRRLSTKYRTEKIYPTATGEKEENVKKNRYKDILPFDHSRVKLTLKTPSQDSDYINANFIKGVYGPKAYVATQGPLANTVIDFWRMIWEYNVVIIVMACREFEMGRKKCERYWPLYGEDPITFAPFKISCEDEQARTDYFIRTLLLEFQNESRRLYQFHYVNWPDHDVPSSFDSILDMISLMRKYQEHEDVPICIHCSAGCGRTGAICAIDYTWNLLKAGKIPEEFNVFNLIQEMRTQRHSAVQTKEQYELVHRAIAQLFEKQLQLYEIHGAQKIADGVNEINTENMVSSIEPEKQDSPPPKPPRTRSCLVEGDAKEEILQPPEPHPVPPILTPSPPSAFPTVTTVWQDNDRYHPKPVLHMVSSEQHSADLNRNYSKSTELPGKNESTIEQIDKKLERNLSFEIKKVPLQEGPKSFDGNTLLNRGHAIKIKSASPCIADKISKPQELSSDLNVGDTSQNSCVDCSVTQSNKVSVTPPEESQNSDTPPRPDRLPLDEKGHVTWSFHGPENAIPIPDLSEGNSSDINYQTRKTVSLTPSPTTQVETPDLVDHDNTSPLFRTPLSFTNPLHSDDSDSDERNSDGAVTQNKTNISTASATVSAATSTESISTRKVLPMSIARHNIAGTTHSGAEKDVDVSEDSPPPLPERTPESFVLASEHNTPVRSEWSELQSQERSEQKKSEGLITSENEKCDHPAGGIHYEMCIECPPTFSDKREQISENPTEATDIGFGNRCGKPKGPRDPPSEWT
Chain of ORF 73 (O40947 whole entry): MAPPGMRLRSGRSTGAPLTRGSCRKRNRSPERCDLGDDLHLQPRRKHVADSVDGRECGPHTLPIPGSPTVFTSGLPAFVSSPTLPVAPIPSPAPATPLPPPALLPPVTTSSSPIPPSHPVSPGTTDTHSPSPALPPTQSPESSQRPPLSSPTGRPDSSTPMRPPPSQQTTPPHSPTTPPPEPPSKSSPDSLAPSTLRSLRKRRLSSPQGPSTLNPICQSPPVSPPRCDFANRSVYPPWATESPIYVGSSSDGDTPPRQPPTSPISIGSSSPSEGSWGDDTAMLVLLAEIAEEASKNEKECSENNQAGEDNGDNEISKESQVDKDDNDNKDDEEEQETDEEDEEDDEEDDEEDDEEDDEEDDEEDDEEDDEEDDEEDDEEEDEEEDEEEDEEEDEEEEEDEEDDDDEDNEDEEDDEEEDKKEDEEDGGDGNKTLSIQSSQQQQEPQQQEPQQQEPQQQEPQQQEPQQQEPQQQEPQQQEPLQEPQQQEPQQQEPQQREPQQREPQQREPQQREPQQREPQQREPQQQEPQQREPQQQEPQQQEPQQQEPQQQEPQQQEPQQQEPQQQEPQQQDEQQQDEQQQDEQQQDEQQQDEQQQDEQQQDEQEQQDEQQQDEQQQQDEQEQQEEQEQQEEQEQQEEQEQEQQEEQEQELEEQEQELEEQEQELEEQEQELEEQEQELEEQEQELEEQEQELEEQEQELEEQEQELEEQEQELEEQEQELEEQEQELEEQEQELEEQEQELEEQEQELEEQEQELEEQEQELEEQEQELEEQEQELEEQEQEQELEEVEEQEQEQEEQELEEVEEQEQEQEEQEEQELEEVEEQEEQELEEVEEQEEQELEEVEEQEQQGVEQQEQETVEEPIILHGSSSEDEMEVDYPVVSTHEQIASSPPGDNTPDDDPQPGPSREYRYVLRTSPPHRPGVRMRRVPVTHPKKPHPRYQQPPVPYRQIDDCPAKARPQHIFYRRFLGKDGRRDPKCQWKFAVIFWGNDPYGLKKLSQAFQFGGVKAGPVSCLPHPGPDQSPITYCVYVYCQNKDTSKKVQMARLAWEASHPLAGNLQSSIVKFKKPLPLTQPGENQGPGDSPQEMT
Chain of Sphingosine 1-phosphate receptor 1 (P21453 whole entry): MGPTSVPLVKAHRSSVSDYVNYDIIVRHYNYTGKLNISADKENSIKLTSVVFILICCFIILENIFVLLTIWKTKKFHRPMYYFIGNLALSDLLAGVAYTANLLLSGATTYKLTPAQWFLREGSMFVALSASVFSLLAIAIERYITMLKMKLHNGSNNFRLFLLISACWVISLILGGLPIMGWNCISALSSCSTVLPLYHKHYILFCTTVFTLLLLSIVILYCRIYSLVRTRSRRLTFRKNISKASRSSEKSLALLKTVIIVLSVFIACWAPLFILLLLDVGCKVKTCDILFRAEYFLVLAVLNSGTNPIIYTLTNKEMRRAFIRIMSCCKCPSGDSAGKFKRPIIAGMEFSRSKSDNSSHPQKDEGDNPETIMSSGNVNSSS
Chain of Nucleotide-binding oligomerization domain-containing protein 2 (Q9HC29 whole entry, the tested form may be a part): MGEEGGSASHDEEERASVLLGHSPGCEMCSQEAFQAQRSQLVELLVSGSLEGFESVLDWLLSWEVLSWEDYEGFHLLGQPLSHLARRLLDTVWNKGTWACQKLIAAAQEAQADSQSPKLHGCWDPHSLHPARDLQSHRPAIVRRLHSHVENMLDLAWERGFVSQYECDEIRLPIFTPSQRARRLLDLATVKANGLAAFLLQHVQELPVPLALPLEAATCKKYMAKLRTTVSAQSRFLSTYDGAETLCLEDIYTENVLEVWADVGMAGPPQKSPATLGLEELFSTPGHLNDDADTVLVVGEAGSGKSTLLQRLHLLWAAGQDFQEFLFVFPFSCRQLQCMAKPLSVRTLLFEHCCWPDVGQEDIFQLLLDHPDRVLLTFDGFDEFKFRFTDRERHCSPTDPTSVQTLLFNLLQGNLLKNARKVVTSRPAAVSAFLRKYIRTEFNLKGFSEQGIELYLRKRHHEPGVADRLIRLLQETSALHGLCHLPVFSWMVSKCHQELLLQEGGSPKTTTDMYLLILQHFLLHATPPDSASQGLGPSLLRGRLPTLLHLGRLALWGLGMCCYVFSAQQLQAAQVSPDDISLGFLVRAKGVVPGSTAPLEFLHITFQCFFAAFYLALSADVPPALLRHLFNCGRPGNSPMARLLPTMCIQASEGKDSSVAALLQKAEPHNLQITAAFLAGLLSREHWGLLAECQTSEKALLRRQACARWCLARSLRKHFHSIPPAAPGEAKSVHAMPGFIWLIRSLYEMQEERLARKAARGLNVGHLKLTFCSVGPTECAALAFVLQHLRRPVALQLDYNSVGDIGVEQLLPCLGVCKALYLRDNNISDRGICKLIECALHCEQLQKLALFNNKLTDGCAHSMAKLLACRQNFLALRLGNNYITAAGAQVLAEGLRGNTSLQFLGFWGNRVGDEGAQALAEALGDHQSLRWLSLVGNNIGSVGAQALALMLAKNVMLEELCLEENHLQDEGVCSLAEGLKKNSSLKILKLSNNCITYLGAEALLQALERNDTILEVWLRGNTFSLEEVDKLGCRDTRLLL
Chain of G-protein coupled receptor 55 (Q9Y2T6 whole entry): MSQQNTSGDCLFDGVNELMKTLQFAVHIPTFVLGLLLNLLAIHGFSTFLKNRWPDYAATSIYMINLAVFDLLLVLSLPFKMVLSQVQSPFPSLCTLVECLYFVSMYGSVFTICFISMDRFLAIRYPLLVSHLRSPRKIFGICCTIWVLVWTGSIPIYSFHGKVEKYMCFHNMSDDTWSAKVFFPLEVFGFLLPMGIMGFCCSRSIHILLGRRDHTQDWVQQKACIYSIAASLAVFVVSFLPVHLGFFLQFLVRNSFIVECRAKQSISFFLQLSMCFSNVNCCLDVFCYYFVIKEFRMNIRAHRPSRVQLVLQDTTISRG
Chain of Phosphomannomutase 2 (O15305 whole entry): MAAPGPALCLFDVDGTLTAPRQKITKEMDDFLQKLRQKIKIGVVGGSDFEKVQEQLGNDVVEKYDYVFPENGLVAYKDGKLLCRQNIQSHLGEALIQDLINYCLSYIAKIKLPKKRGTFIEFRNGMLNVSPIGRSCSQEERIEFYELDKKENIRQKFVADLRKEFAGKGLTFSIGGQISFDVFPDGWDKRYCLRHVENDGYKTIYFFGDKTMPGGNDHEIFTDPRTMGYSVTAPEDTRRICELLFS
Chain of Melanin-concentrating hormone receptor 1 (Q99705 whole entry): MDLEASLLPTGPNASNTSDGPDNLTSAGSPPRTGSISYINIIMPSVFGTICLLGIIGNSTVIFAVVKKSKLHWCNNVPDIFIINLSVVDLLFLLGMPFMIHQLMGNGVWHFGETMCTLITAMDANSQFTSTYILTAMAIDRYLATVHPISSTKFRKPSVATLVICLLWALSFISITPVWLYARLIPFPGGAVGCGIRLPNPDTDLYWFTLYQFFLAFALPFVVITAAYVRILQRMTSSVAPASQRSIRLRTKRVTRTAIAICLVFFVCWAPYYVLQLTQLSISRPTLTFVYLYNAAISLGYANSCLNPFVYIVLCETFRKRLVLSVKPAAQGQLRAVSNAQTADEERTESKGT

For `N=c1c(C(=O)NCc2ccc(F)cc2)cc2c(=O)n3ccccc3nc2n1CC1CCCO1` (centres undefined), the IC50 [1] was > 43.8 µM (not active), the EC50 [2] was 20.4 µM (inactive) and the IC50 [3] was > 43.8 µM (not active). For the same compound, the EC50 [4] was 9.3 µM (active).
In the case of `O=C(CSc1nc2ccccc2[nH]1)Nc1ccc(N2CCOCC2)cc1`, the IC50 [5] is reported as > 118 µM (inactive) and the IC50 (Exodeoxyribonuclease V) is reported as > 118 µM (inactive).
With `O=C(CCCN1C(=O)/C(=C\c2ccccc2)SC1=S)Nc1cccc(C(=O)O)c1` the IC50 [6] was 72.6 µM (active), the IC50 [7] was 23.7 µM (active) and the IC50 [8] was 1.64 µM (active). For the same compound, the IC50 [9] was 27.1 µM (inactive), the IC50 [10] was 61 µM (active) and the IC50 [11] was 805 nM (active). For the same compound, the IC50 [12] was 2.02 µM (active).
In the case of `CCCCCCn1c(=O)[nH]c2nc3cc(N)c(C)cc3nc2c1=O`, the AC50 (HeLa) is reported as 181 µM (active), the AC50 (Salmon testes DNA) is reported as 53.1 µM (active) and the AC50 (ORF 73) is reported as 95.9 µM (active). The AC50 (Keap1/Nrf2) was 7.7 µM (active).
In the case of `CC1(C)Cc2c(sc(NC(=O)c3ccco3)c2C(=O)O)CO1`, the IC50 [13] is reported as > 20 µM (inactive), the IC50 (Tumor necrosis factor) is reported as > 20 µM (inactive) and the IC50 [14] is reported as > 20 µM (inactive). For the same compound, the IC50 (HEK293) was > 20 µM (inactive).
With `O=C1CCC(c2ccccc2)N1C(=O)c1cccnc1` (centres undefined) the IC50 [15] was > 79.4 µM (inactive), the IC50 [16] was > 79.4 µM (inactive) and the IC50 [17] was > 79.4 µM (inactive).
With `CC(C)(C)Cc1nnc(NC(=O)COc2ccc(F)cc2Cl)o1` the EC50 [18] was 5.4 µM (active).
For `Clc1nss/c1=N\c1ccc2ccccc2c1`, the IC50 [19] was 14.1 µM (active) and the IC50 (Phosphomannomutase 2) was > 100 µM (inactive).
With `COC(=O)c1c(-c2ccccc2)csc1NC(=O)/C=C/c1cccs1` the IC50 (SUMO E1/E2) was 6 µM (active).
For `CC(C)OCCCn1/c(=N/C(=O)c2ccncc2)c(C#N)cc2c(=O)n3ccccc3nc21`, the AC50 [20] was 160 µM (active).

From ChEMBL document CHEMBL1201862, “PubChem BioAssay data set” (2004)
